Test results taken from the SangsterLogP compilation.

SMILES	logP
O=C1CCC(=O)N1c1cc(C(F)(F)F)cc(C(F)(F)F)c1	2.25
O=C1CCC(=O)N1c1cc(Cl)cc(Cl)c1Cl	2.44
CC(=O)Oc1cccc(O)c1	1.26
Cc1cccc(Nc2ccccc2C(=O)O)c1	4.74
Cc1ccc(C(=O)O)cc1	2.43
Cc1cc(C)cc(N2C(=O)CCC2=O)c1	1.16
O=C(O)c1cccc(Br)c1	2.83
O=C1CCC(=O)N1c1cc(Cl)cc(Cl)c1	1.88
O=C(O)c1cccc(F)c1	2.05
O=C(c1ccccc1)c1ccc(O)cc1	2.91
O=C1CC(c2cccc(C(F)(F)F)c2)C(=O)N1 (stereo not drawn)	1.35
Oc1cccc(C(F)(F)F)c1	2.61
N#Cc1ccc(C(=O)O)cc1	1.55
O=C1CCC(=O)N1c1cc(Br)cc(Br)c1	2.12
O=C1CCC(=O)N1c1cc(Cl)c(Cl)c(Cl)c1	2.92
CCCc1cccc(N2C(=O)CCC2=O)c1	1.52
O=C(O)c1ccccc1Nc1cccc([N+](=O)[O-])c1	4.42
O=C1CCC(=O)N1c1ccc(C(F)(F)F)cc1	1.3
